The record followed here is patent publication US20050159594A1, “Eplerenone crystal form exhibiting enhanced dissolution rate” (Pharmacia Corporation, priority 1995, published 2005).

Values after ≈ are worked out from the molar mass of the structure shown.

In general, solubility refers to the concentration that dissolves in the medium under given conditions.

Holding throughout (assay type): physicochemical
The nature of data set [1]: Intrinsic dissolution rate of eplerenone polymorph samples. As to the method:
Intrinsic dissolution rates were measured for the following four eplerenone polymorph samples: (i) Form L eplerenone prepared by direct crystallization from acetonitrile using water as an anti-solvent in the same manner as in Example 11, Procedure B; (ii) Form H eplerenone prepared by digestion in ethanol in the same manner as in Example 10, Procedure A, (iii) a mixture of 5% Form H and 95% Form L; and (iv) Form L eplerenone that was micronized to provide the following particle size distribution: 10% by weight of the particles under 9 μm, 50% by weight of the particles under 22 μm, and 90% by weight of the particles under 41 μm.
Eplerenone in an amount of 150 mg was weighed and placed into a VanKel intrinsic dissolution cavity. The powder was compressed at 8280 kPa using a Carver press to form tablets. The sample was then mounted on the intrinsic dissolution apparatus. The dissolution medium used was 1% sodium dodecyl sulfate (SDS) in HPLC water. All tests were conducted at 37° C. for 2 hours. […] Samples were drawn at determined intervals for the determination of rate of dissolution. […] The samples were analyzed by UV absorbance detection at 243 nm. Intrinsic dissolution rates were calculated from the slope of the linear portion of the concentration versus time profiles corrected for volume and normalized for the surface area of the dissolution tablet (0.5 cm^2).

Data set [2] in a line: Slurry conversion / thermodynamic stability of Form H versus Form L. As to the method:
Approximately 150 mg of Form L eplerenone and 150 mg of Form H eplerenone were added to 5 ml ethyl acetate. The resulting slurry was magnetically stirred at 300 rpm overnight. The next day a sample of the resulting solid was collected by filtration.

Data set [3] in a line: Aqueous solubility of Form L eplerenone. The note with it: for solubility: phosphate buffer, pH 7, aqueous, pH 7 (100 mM phosphate buffer). As to the method:
The aqueous solubility of Form L eplerenone was measured at pH 7 (100 mM phosphate buffer) at 5, 25 and 40° C. Approximately 30 mg of Form L eplerenone was mixed with approximately 10 ml of buffer to form a slurry of eplerenone at both 5 and 25° C. Approximately 40 mg of […] eplerenone was mixed with approximately 10 ml of buffer to form a slurry of eplerenone at 40° C. Samples were prepared in duplicate for each condition. The slurries were allowed to equilibrate in water shaker baths at the appropriate temperature and the solutions were analyzed for eplerenone content by ultraviolet visible analysis (245 nm) at time intervals of 1, 5, 12, 19, 27 and 36 days. Data from each temperature were appropriately averaged to determine the solubility of eplerenone at each temperature and are reported in Table 8.

With `COC(=O)[C@@H]1CC2=CC(=O)CC[C@]2(C)[C@@]23O[C@@H]2C[C@@]2(C)C(CC[C@@]24CCC(=O)O4)C13` (some centres unmarked) [Form H eplerenone, methyl hydrogen 9,11-epoxy-17-hydroxy-3-oxopregn-4-ene-7,21-dicarboxylate, γ-lactone], the “Intrinsic dissolution rate, comparison in words” value in data set [1] (1% SDS in HPLC water, 37 °C, 2 hours, compressed tablet 0.5 cm^2) is “faster intrinsic dissolution rate than Form L eplerenone”. Also, the “Dissolution rate relative to Form L eplerenone (faster by)” value in data set [1] (aqueous medium, temperatures below the enantiotropic transition temperature) is “approximately 30%”. Besides, the “Solid form after slurry conversion (XRPD)” value in data set [2] (150 mg Form L + 150 mg Form H in 5 ml ethyl acetate, stirred overnight) is “entirely composed of Form L eplerenone”.
`COC(=O)[C@@H]1CC2=CC(=O)CC[C@]2(C)[C@@]23O[C@@H]2C[C@@]2(C)C(CC[C@@]24CCC(=O)O4)C13` (some centres unmarked) [Form L eplerenone, methyl hydrogen 9,11-epoxy-17-hydroxy-3-oxopregn-4-ene-7,21-dicarboxylate, γ-lactone]: the “Solid form of residual solids after equilibration (DSC, TGA)” value in data set [3] (aqueous slurry pH 7, end of the 36 day equilibration) is “determined to be Form L eplerenone”. Also, the solubility in data set [3] (5 °C) was found to be 0.24 mg/mL (≈ 579 µM); in data set [3] (25 °C), 0.29 mg/mL (≈ 700 µM); in data set [3] (40 °C), 0.39 mg/mL (≈ 941 µM). Also, the “Thermodynamic stability, comparison of polymorphs” value in data set [2] (ambient temperatures) is on record as “more thermodynamically stable than Form H at ambient temperatures”.
